Key:
Human subjects [1] = experiment: Nose temperature after ingestion; assay type: in vivo; conditions: fifteen minutes following ingestion
Description: The nose temperature of the subjects was analyzed over the fifteen minutes following ingestion of the various compounds.

Human subjects [2] = experiment: Comparative taste testing; assay type: in vivo; conditions: 4.8 ppm capsaicin or 350 ppm cinnamaldehyde
Description: Human subjects were administered a composition comprising 4.8 ppm capsaicin or 350 ppm cinnamaldehyde. […] 87.9% of the participants judged capsaicin intense to very intense, compared to only 20.5% for cinnamaldehyde. To achieve a similar effect on fat oxidation of capsaicin and cinnamaldehyde, the dose of capsaicin is about 1.5 times less than the maximum that can be used as a flavor (7 ppm according to Fenaroli's Handbook), and the dose of cinnamaldehyde is about 17.5 times less than the maximum that can be used as a flavor (6191.0 ppm according to Fenaroli's Handbook).

[3] = Ludy et al. 2011; cited from earlier work
TRPA1 [4] = conditions: read-out: EC50 of TRPA1 activation; cited from earlier work
TRPV1 = TRPV1 (Homo sapiens, UniProt Q8NER1); conditions: cited from earlier work
TRPV1, sequence (Q8NER1 whole entry, species assumed): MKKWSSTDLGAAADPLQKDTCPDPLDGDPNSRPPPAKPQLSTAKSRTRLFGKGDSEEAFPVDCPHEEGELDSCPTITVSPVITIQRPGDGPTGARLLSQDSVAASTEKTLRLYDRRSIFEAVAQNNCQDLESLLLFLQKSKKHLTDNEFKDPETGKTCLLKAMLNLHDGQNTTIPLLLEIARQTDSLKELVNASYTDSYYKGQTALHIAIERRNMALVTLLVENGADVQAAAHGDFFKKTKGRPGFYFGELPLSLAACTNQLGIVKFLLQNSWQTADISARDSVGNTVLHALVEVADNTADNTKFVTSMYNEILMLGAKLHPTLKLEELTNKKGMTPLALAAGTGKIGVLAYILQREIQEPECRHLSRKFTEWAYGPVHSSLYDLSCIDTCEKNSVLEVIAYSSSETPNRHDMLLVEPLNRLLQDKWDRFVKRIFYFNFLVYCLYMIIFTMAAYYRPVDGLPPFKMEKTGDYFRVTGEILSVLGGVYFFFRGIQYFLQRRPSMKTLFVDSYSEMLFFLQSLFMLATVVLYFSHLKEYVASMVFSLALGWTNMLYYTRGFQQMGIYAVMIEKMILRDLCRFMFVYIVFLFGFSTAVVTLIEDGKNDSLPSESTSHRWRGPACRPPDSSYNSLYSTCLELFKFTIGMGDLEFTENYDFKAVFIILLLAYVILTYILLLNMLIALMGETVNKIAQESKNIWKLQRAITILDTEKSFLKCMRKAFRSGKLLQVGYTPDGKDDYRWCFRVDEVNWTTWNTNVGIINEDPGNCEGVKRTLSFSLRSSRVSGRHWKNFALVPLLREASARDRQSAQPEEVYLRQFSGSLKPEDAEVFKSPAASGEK

TRPM8 = TRPM8 (Homo sapiens, UniProt Q7Z2W7); conditions: cited from earlier work
TRPM8, sequence (Q7Z2W7 whole entry, species assumed): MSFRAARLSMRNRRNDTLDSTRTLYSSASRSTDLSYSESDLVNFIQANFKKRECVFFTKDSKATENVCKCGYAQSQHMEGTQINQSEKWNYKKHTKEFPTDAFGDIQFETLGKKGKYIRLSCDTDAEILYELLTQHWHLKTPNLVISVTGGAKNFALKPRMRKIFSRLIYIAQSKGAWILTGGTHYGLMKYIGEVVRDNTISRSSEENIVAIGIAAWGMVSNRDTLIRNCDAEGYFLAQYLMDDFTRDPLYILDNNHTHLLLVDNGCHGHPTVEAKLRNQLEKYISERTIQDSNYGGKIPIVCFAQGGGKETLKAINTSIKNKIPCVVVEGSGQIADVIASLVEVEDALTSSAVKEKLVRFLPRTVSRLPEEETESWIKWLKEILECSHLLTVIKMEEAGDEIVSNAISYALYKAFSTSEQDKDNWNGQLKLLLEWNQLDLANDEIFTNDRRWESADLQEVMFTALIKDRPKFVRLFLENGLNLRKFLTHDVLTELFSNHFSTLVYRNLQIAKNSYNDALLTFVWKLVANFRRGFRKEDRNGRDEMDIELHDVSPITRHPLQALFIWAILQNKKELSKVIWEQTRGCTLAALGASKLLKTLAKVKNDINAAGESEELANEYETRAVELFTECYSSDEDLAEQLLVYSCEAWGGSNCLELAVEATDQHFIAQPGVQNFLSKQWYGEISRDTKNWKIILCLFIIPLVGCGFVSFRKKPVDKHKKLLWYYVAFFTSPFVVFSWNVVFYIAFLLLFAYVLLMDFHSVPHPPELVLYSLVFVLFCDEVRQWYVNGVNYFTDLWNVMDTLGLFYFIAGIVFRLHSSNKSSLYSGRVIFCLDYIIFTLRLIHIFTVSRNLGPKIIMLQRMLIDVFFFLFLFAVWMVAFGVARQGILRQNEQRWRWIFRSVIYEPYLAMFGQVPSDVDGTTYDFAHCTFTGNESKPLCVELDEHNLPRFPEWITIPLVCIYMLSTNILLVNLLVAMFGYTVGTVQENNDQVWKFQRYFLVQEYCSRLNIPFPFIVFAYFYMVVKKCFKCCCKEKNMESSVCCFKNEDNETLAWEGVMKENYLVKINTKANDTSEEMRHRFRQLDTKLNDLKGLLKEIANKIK

Human subjects [5] = experiment: Energy expenditure after ingestion (indirect calorimetry); assay type: in vivo
Description: Human subjects were administered placebo, a cooling flavor, capsaicin or cinnamaldehyde. The energy expenditure was measured over the eighty minutes following ingestion. […] The increased sympathetic activity identified by measuring the facial temperature (increased blood flow on the chin) might explain the increased energy expenditure measured by indirect calorimetry.

Human subjects [6] = experiment: Postprandial fat oxidation after ingestion; assay type: in vivo
Description: The postprandial fat oxidation was measured over the 90 minutes following ingestion of the various compounds.

obese mice = experiment: Pre-clinical study, chronic ingestion in food; assay type: in vivo; conditions: 0.2% in food
Description: The findings of the inventors were especially surprising in that a low dose (1.25 mg/kg body weight per day) of cinnamaldehyde at a flavoring range can provide an effect after a single ingestion. In a pre-clinical study by the inventors, the dose of cinnamaldehyde was about 250 mg/kg body weight per day, with chronic ingestion (effect on body weight gain and insulin sensitivity).

TRPA1 [7] = target: T1, TRPA1 (Mus musculus, UniProt Q8BLA8); experiment: Pre-clinical study, single dose: gastric emptying and short term food intake; assay type: in vivo; conditions: single dose 250 mg/kg bw
T1 construct: endogenous in cells; host or cells: living animals of the pre-clinical study (probably mice)
T1 sequence (Q8BLA8 whole entry): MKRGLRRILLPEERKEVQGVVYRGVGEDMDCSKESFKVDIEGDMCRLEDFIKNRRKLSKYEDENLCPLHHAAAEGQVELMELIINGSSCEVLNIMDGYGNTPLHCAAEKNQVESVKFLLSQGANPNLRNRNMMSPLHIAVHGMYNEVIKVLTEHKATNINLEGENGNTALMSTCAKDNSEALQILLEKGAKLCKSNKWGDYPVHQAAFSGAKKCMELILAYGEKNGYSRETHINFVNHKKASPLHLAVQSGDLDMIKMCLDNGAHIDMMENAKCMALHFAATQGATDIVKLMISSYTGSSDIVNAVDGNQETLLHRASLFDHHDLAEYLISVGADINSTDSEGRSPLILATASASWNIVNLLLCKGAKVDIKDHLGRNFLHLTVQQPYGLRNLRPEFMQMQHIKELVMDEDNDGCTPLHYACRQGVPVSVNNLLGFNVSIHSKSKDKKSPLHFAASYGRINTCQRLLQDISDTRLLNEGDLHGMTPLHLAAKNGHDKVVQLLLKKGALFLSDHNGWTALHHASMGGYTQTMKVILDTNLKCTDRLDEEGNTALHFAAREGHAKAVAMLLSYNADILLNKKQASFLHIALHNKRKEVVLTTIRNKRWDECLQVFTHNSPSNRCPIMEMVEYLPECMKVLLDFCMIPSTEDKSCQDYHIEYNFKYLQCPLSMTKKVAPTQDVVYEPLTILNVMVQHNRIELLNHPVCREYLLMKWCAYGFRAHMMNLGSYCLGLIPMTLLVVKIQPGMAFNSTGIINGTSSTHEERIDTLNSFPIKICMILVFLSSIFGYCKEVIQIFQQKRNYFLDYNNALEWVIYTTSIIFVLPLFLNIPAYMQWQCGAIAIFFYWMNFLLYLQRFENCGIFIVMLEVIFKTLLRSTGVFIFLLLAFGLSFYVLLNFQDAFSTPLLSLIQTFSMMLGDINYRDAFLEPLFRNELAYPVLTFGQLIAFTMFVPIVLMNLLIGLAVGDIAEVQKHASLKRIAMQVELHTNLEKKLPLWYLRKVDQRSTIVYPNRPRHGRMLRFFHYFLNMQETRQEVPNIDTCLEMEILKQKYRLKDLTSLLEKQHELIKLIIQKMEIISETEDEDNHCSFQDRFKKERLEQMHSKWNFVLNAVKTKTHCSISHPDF

Human subjects [8] = experiment: Chin temperature after ingestion (sympathetic nervous system activity); assay type: in vivo
Description: The chin temperature of the subjects was measured over the eighty minutes following ingestion of the various compounds. […] The increased sympathetic activity identified by measuring the facial temperature (increased blood flow on the chin) might explain the increased energy expenditure measured by indirect calorimetry.

[9] = flavoring level of cinnamaldehyde judged significantly less intense than capsaicin

Question: With `COc1cc(CNC(=O)CCCC/C=C/C(C)C)ccc1O` [capsaicin] as the compound, how does the nose temperature (Human subjects [1]) read?
Answer: increase nose temperatures

Question: And the “participants who judged the taste intense to very intense” value (Human subjects [2])?
Answer: 87.9%

Question: And the “efficient dose for increasing energy expenditure and fat oxidation” value [3]?
Answer: ≥ 20 mg

Question: Which results are given for `O=CC=Cc1ccccc1` [cinnamaldehyde]?
Answer: nose temperature (Human subjects [1]): increase nose temperatures; EC50 (TRPA1 [4]): ~60 µM; activation of TRPV1 (TRPV1): not; activation of TRPM8 (TRPM8): not; impact on energy expenditure compared to capsaicin (Human subjects [5]; [9]): significantly higher impact; energy expenditure compared to placebo (Human subjects [5]; human subjects, eighty minutes following ingestion, time course and AUC): increased; effect on fat oxidation compared to capsaicin (Human subjects [6]; [9]): equivalent effect; postprandial fat oxidation compared to placebo (Human subjects [6]; human subjects, 90 minutes following ingestion, time course and AUC): maintained at higher levels; lean mass gain (obese mice): no effect; body weight gain (obese mice; about 250 mg/kg bw/day): reduces body weight gain; food intake (obese mice; about 250 mg/kg bw/day): without affecting their food intake; insulin sensitivity (obese mice; about 250 mg/kg bw/day): improves their insulin sensitivity; fat mass gain (obese mice; p 0.06): tendency to decrease; short term food intake (TRPA1 [7]): reduced short term food intake; gastric emptying (TRPA1 [7]; through TRPA1 activation): delayed gastric emptying; impact on sympathetic nervous system activity compared to capsaicin (Human subjects [8]; [9]): significantly higher impact; chin temperature relative to baseline (Human subjects [8]; human subjects, eighty minutes following ingestion): increases chin temperature for a prolonged time

From patent US10159653B2, “Methods and compositions for increasing energy expenditure using cinnamaldehyde” (NESTEC S.A., priority 2013, dated 2018)
